Read-outs that look alike come from different tables or passages of the source.
Legend:
hPAD4 = hPAD4 (Homo sapiens, UniProt Q9UM07); assay: hPAD4 RFMS (RapidFire mass spectrometry) PAD4 inhibition assay; format: biochemical; conditions: hPAD4 enzyme, RFMS readout;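 as to hPAD4 RFMS pIC50: grade E means pIC50 at most 4 and F means pIC50 4.0 to 5.0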
Description: (§1) Compounds of the present invention were assayed as inhibitors of PAD4 using the assay protocol described below.
(§2) Compound stock solutions were stored at RT. […] Final assay conditions were as follows:
(§3) Total incubation time: 65 mins at 37° C.
(§4) Stop solution: 40 μl 5% TCA in ACN
(§5) The compound numbers correspond to the compound numbers in Table 1. […] The term pIC50=−log(IC50). […] “NA” stands for “not assayed.”

mPAD4 = mPAD4 (Mus musculus, UniProt Q9Z183); assay: mPAD4 RFMS PAD4 inhibition assay; format: biochemical; conditions: mPAD4, RFMS readout;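 as to mPAD4 RFMS pIC50: grade E means pIC50 at most 4 and F means pIC50 4.0 to 5.0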
Description: as §1, §2, §3, §4, §5

[1] = pIC50=−log(IC50), read-out: hPAD4 RFMS pIC50 (converted)
[2] = pIC50=−log(IC50), read-out: mPAD4 RFMS pIC50 (converted)

Sequence of hPAD4 (Q9UM07 whole entry): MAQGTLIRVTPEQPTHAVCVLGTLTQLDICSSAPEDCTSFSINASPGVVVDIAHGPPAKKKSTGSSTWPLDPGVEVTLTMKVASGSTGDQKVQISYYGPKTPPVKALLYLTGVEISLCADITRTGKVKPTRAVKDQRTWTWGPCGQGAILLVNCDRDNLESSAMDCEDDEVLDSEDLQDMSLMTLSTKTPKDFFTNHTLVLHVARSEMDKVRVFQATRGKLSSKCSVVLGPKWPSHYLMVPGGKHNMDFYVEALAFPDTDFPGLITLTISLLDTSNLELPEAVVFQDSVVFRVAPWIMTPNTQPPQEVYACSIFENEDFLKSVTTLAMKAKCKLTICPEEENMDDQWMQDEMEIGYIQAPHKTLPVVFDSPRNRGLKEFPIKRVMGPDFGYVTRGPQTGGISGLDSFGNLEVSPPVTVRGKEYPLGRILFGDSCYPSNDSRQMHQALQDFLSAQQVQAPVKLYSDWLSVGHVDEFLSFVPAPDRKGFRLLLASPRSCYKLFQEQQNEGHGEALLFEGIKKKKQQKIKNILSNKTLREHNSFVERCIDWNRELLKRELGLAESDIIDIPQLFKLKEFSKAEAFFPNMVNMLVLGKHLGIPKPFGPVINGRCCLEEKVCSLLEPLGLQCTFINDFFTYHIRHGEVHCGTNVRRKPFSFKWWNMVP
Sequence of mPAD4 (Q9Z183 whole entry): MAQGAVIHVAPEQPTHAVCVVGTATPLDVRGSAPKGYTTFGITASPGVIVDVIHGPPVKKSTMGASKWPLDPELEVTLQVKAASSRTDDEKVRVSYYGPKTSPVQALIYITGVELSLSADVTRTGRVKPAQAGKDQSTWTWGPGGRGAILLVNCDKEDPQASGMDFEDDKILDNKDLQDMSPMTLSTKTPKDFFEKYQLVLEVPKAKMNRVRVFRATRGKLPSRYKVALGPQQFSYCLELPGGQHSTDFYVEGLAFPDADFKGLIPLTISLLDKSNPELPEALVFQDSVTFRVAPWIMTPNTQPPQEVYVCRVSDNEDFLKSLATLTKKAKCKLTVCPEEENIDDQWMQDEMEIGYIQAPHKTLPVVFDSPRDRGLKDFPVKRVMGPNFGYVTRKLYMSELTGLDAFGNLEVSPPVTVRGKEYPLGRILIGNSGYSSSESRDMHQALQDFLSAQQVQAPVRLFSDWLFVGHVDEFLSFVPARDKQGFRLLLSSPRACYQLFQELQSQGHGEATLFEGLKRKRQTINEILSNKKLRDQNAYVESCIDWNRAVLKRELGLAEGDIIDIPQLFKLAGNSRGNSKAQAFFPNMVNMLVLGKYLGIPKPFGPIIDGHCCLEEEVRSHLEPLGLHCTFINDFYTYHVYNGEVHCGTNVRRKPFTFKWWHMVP

Row | IC50 (hPAD4; [1]) [nM] | IC50 (hPAD4; read-out: hPAD4 RFMS IC50) [nM] | IC50 (mPAD4; [2]) [nM] | IC50 (mPAD4; read-out: mPAD4 RFMS IC50) [nM] | hPAD4 RFMS pIC50 (hPAD4; pIC50=−log(IC50)) | mPAD4 RFMS pIC50 (mPAD4; pIC50=−log(IC50)) | Structure (SMILES)
1 | < 1000 | < 1000 | 1000 to 10000 | 1000 to 5000 | – | – | COc1cc(C(=O)N2C[C@H]3C[C@H](O)[C@@H]2[C@@H]3N)cc2nc(-c3cc4cccnc4n3CC3CC3)n(C)c12 [Compound I-162, (1S,4R,6S,7R)-7-Amino-2-{2-[1-(cyclopropylmethyl)-1H-pyrrolo[2,3-b]pyridin-2-yl]-7-methoxy-1-methyl-1H-1,3-benzodiazole-5-carbonyl}-2-azabicyclo[2.2.1]heptan-6-ol]
2 | < 1000 | < 1000 | < 1000 | < 1000 | – | – | COc1ccc2cc(-c3nc4cc(C(=O)N5C[C@H](N)C[C@@H](F)C5)cc(OC)c4n3C)n(CC3CC3)c2n1 [Compound I-123]
3 | 1000 to 10000 | 1000 to 5000 | 1000 to 10000 | 5000 to 10000 | – | – | Cn1c(-c2cc3cccnc3n2CC2CC2)nc2cc(C(=O)N3C[C@H]4CC[C@@H]3[C@@H]4N)c(F)cc21 [Compound I-194]
4 | 1000 to 10000 | 1000 to 5000 | 10000 to 100000 | > 10000 | – | – | Cn1c(-c2cc3cccnc3n2CC2CC(C)(O)C2)nc2cc(C(=O)N3CCC[C@@H](N)C3)ccc21 (stereo partly drawn) [Compound I-110, 3-[(2-{5-[(3R)-3-Aminopiperidine-1-carbonyl]-1-methyl-1H-1,3-benzodiazol-2-yl}-1H-pyrrolo[2,3-b]pyridin-1-yl)methyl]-1-methylcyclobutan-1-ol]
5 | 1000 to 10000 | 1000 to 5000 | < 1000 | < 1000 | – | – | CCn1c(-c2cc3cccnc3n2CC2CC2)nc2cc(C(=O)N3C[C@@H](N)C[C@H](F)C3)cc(OC)c21 [Compound I-71]
6 | 1000 to 10000 | 5000 to 10000 | 10000 to 100000 | > 10000 | – | – | CCn1c(-c2nc3cc(C(=O)N4CCC[C@@H](N)C4)ccc3n2CCOC)cc2cccnc21 [Compound I-185]
7 | < 1000 | < 1000 | < 1000 | < 1000 | – | – | COc1cc(C(=O)N2CCC(OC(F)F)C(N)C2)cc2nc(-c3cc4cccnc4n3CC3CC3)n(C)c12 (racemic) [Compound I-86, rac-(3R,4S)-1-{2-[1-(cyclopropylmethyl)-1H-pyrrolo[2,3-b]pyridin-2-yl]-7-methoxy-1-methyl-1H-1,3-benzodiazole-5-carbonyl}-4-(difluoromethoxy)piperidin-3-amine]
8 | 1000 to 10000 | 1000 to 5000 | 1000 to 10000 | 1000 to 5000 | – | – | COc1cc(C(=O)N2CCC(F)C(N)C2)cc2nc(-c3cc4cccnc4n3CC3CC3)n(C)c12 (racemic) [Compound I-75, 1-{2-[1-(Cyclopropylmethyl)-1H-pyrrolo[2,3-b]pyridin-2-yl]-7-methoxy-1-methyl-1H-1,3-benzodiazole-5-carbonyl}-4-fluoropiperidin-3-amine]
9 | 1000 to 10000 | 1000 to 5000 | 1000 to 10000 | 5000 to 10000 | – | – | CCn1c(-c2nc3cc(C(=O)N4CCC[C@@H](N)C4)cc(F)c3n2C)cc2cccnc21 [Compound I-164]
10 | 1000 to 10000 | 1000 to 5000 | 1000 to 10000 | 1000 to 5000 | – | – | COc1cc(C(=O)N2CC[C@H](F)[C@H](N)C2)cc2nc(-c3cc4cccnc4n3CC3CC3)n(C)c12 [Compound I-90]
11 | < 1000 | < 1000 | 1000 to 10000 | 1000 to 5000 | – | – | CCn1c(-c2nc3cc(C(=O)N4C[C@H]5CC[C@@H]4[C@@H]5N)cc(OC)c3n2CCOC)cc2cccnc21 [Compound I-175]
12 | < 1000 | < 1000 | < 1000 | < 1000 | – | – | CCn1c(-c2nc3cc(C(=O)N4C[C@H]5CC[C@@H]4[C@@H]5N)cc(OC)c3n2C)cc2cccnc21 (racemic) [Compound I-143]
13 | < 1000 | < 1000 | < 1000 | < 1000 | – | – | CCn1c(-c2nc3cc(C(=O)N4C[C@H]5CC[C@@H]4[C@@H]5N)cc(OC)c3n2C[C@H]2C[C@@](C)(O)C2)cc2cccnc21 [Compound I-155]
14 | – | > 10000 | – | > 10000 | E/F | E/F | COc1cc(C(=O)N2C[C@@H]3CC[C@H]2[C@H](N)C3)cc2nc(-c3cc4cccnc4n3CC3CC3)n(C)c12 [Compound I-215]
15 | 1000 to 10000 | 1000 to 5000 | 10000 to 100000 | > 10000 | – | – | CCn1c(-c2nc3cc(C(=O)N4C[C@H]5CC[C@@H]4[C@@H]5N)ccc3n2CCOC)cc2cccnc21 [Compound I-186]
16 | 1000 to 10000 | 1000 to 5000 | 1000 to 10000 | 1000 to 5000 | – | – | CCn1c(-c2nc3cc(C(=O)N4C[C@H]5CC[C@@H]4[C@@H]5N)cc(OC)c3n2[C@H]2C[C@@H](OC)C2)cc2cccnc21 [Compound I-218]

Row | IC50 (hPAD4; [1]) [nM] | IC50 (hPAD4; read-out: hPAD4 RFMS IC50) [nM] | IC50 (mPAD4; [2]) [nM] | IC50 (mPAD4; read-out: mPAD4 RFMS IC50) [nM] | hPAD4 RFMS pIC50 (hPAD4; pIC50=−log(IC50)) | mPAD4 RFMS pIC50 (mPAD4; pIC50=−log(IC50)) | Structure (SMILES)
17 | 1000 to 10000 | 5000 to 10000 | 1000 to 10000 | 1000 to 5000 | – | – | COc1cc(C(=O)N2C[C@@H](N)C[C@H](O)C2)cc2nc(-c3cc4cccnc4n3CC3CC3)n(C)c12 (racemic) [Compound I-80]
18 | – | < 1000 | 1000 to 10000 | 1000 to 5000 | H (pIC50 of ≥6) | – | COc1cc(C(=O)N2C[C@H]3CC[C@@H]2[C@@H]3N)cc2nc(-c3cc4cccnc4n3CC3CC3)n(CC(F)F)c12 [Compound I-234]
19 | < 1000 | < 1000 | < 1000 | < 1000 | – | – | COc1cc(C(=O)N2CC3CCC2[C@H]3N)cc2nc(-c3cc4cccnc4n3CC3CC3)n(C)c12 (some centres unmarked) [Compound I-31]
20 | 10000 to 100000 | > 10000 | 1000 to 10000 | 5000 to 10000 | – | – | CO[C@@H]1CCN(C(=O)c2cc(OC(F)F)c3c(c2)nc(-c2cc4cccnc4n2CC2CC2)n3C)C[C@@H]1N [Compound I-124]
21 | < 1000 | < 1000 | < 1000 | < 1000 | – | – | COc1cc(C(=O)N2CCC[C@@H](N)C2)cc2nc(-c3cc4cccnc4n3CC3CC3)n(C[C@H]3C[C@@](C)(OC)C3)c12 [Compound I-182]
22 | < 1000 | < 1000 | < 1000 | < 1000 | – | – | CCc1ccc2cc(-c3nc4cc(C(=O)N5CCC[C@@H](N)C5)cc(OC)c4n3CC)n(CC3CC3)c2n1 [Compound I-105, (3R)-1-{2-[1-(cyclopropylmethyl)-6-ethyl-1H-pyrrolo[2,3-b]pyridin-2-yl]-1-ethyl-7-methoxy-1H-1,3-benzodiazole-5-carbonyl}piperidin-3-amine]
23 | < 1000 | < 1000 | < 1000 | < 1000 | – | – | [2H]C([2H])([2H])OC1(C)CC(Cn2c(-c3cc4cccnc4n3CC3CC3)nc3cc(C(=O)N4C[C@H]5CC[C@@H]4[C@@H]5N)cc(OC)c32)C1 (stereo partly drawn) [Compound I-238, (1R,4R,7R)-2-{2-[1-(cyclopropylmethyl)-1H-pyrrolo[2,3-b]pyridin-2-yl]-7-methoxy-1-{[3-(^2H3)methoxy-3-methylcyclobutyl]methyl}-1H-1,3-benzodiazole-5-carbonyl}-2-azabicyclo[2.2.1]heptan-7-amine]
24 | 10000 to 100000 | > 10000 | 10000 to 100000 | > 10000 | – | – | COc1cc(C(=O)N2C[C@@H]3COC[C@]3(CN)C2)cc2nc(-c3cc4cccnc4n3CC3CC3)n(C)c12 [Compound I-126]
25 | > 100000 | > 10000 | > 100000 | > 10000 | – | – | COc1cc(C(=O)N2CCCC3(CNC3)C2)cc2nc(-c3cc4cccnc4n3CC3CC3)n(C)c12 [Compound I-100]
26 | < 1000 | < 1000 | 1000 to 10000 | 1000 to 5000 | – | – | COc1cc(C(=O)N2CCC[C@@H](N)C2)cc2nc(-c3cc4cnc(C)nc4n3CC3CC3)n(C)c12 [Compound I-203]
27 | – | > 10000 | – | 1000 to 5000 | F (pIC50 of 4.0-5.0) | G (pIC50 of 5.0-6.0) | CO[C@@H]1CCN(C(=O)c2cc(OC(F)F)c3c(c2)nc(-c2cc4cccnc4n2CC2CC2)n3C)C[C@@H]1N [Compound I-133]
28 | < 1000 | < 1000 | < 1000 | < 1000 | – | – | CCn1c(-c2nc3cc(C(=O)N4C[C@H]5CC[C@@H]4[C@@H]5N)cc(OC)c3n2C)cc2ccc(C(F)(F)F)nc21 [Compound I-183]
29 | < 1000 | < 1000 | < 1000 | < 1000 | – | – | CCCn1c(-c2nc3cc(C(=O)N4C[C@H]5CC[C@@H]4[C@@H]5N)cc(OC)c3n2C)cc2cccnc21 [Compound I-154]
30 | < 1000 | < 1000 | < 1000 | < 1000 | – | – | COc1cc(C(=O)N2C[C@H]3CC[C@@H]2[C@@H]3N)cc2nc(-c3cc4cccnc4n3CC3CC3)n(C[C@@H]3CCOC3)c12 [Compound I-232]
31 | < 1000 | < 1000 | < 1000 | < 1000 | – | – | COc1cc(C(=O)N2CC[C@H]3OCCN[C@H]3C2)cc2nc(-c3cc4cccnc4n3CC3CC3)n(C)c12 [Compound I-28]
32 | < 1000 | < 1000 | < 1000 | < 1000 | – | – | COc1cc(C(=O)N2C[C@H]3CC[C@@H]2[C@@H]3N)cc2nc(-c3cc4cccnc4n3CC3CC3)n(CC[S+](C)[O-])c12 (stereo partly drawn) [Compound I-213, (1R,4R,7R)-2-{2-[1-(Cyclopropylmethyl)-1H-pyrrolo[2,3-b]pyridin-2-yl]-1-(2-methanesulfinylethyl)-7-methoxy-1H-1,3-benzodiazole-5-carbonyl}-2-azabicyclo[2.2.1]heptan-7-amine]

From patent US9963448B2, “Bicyclic inhibitors of PAD4” (Padlock Therapeutics, Inc., priority 2015, dated 2018)
